In article PMC4657098, “A Review of the Updated Pharmacophore for the Alpha 5 GABA(A) Benzodiazepine Receptor Model” (International Journal of Medicinal Chemistry, 2015):
“And” between values parts separate entries of the source, which are not always exact repeats. Equal values may be shown once. Read-outs that look alike come from different tables or passages of the source.

Assays:
[1] = tested on: dopamine neurons in the VTA; conditions: rat, in vivo; cited from earlier work
α4β3γ2 GABAA/BzR [2] = molecular target: T1, α4β3γ2 GABAA/BzR (Homo sapiens, UniProt P18507+P48169); assay: biochemical; format: binding
T1 construct: expressed in transfected cells; host or cells: LTK cells (given for XLi-093 only)

[3] = tested on: Bz BS of GABA(A) receptors; conditions: cited from earlier work
α3β3γ2 GABAA/BzR [4] = molecular target: T2, α3β3γ2 GABAA/BzR (Homo sapiens, UniProt P18507+P34903); assay: Competition binding to HEK cell membranes, α3β3γ2; parameters: expressed in transfected cells
α5β3γ2 GABAA/BzR [5] = molecular target: T3, α5β3γ2 GABAA/BzR (Homo sapiens, UniProt P18507+P31644); assay: Competition binding to HEK cell membranes, α5β3γ2; parameters: expressed in transfected cells
α6β3γ2 GABAA/BzR [6] = molecular target: T4, α6β3γ2 GABAA/BzR (Homo sapiens, UniProt P18507+Q16445); assay: Competition binding to HEK cell membranes, α6β3γ2; parameters: expressed in transfected cells
α1β3γ2 GABAA/BzR [7] = molecular target: T5, α1β3γ2 GABAA/BzR (Homo sapiens, UniProt P14867+P18507); parameters: expressed in transfected cells; host or cells: LTK cells (given for XLi-093 only); conditions: cited from earlier work
α5β3γ2 GABAA/BzR [8] = molecular target: T3, α5β3γ2 GABAA/BzR; parameters: expressed in transfected cells; host or cells: LTK cells (given for XLi-093 only); conditions: cited from earlier work
α6β3γ2 GABAA/BzR [9] = molecular target: T4, α6β3γ2 GABAA/BzR; parameters: expressed in transfected cells; host or cells: LTK cells (given for XLi-093 only); conditions: cited from earlier work
α4β3γ2 GABAA/BzR [10] = molecular target: T1, α4β3γ2 GABAA/BzR; conditions: cited from earlier work
α1β3γ2 GABAA/BzR [11] = molecular target: T5, α1β3γ2 GABAA/BzR; assay: Competition binding to HEK cell membranes, α1β3γ2; parameters: expressed in transfected cells
α2β3γ2 GABAA/BzR [12] = molecular target: T6, α2β3γ2 GABAA/BzR (Homo sapiens, UniProt P18507+P47869); assay: Competition binding to HEK cell membranes, α2β3γ2; parameters: expressed in transfected cells
α2β3γ2 GABAA/BzR [13] = molecular target: T6, α2β3γ2 GABAA/BzR; parameters: expressed in transfected cells; host or cells: LTK cells (given for XLi-093 only); conditions: cited from earlier work
α3β3γ2 GABAA/BzR [14] = molecular target: T2, α3β3γ2 GABAA/BzR; parameters: expressed in transfected cells; host or cells: LTK cells (given for XLi-093 only); conditions: cited from earlier work
[15] = tested on: human airway smooth muscle cells; conditions: 200 μM; cited from earlier work
[16] = Figure 33, αxβ3γ2, read-out: Affinity Ki α1
[17] = Figure 33, αxβ3γ2, read-out: Affinity Ki α5
[18] = Figure 33, αxβ3γ2, read-out: Affinity Ki α6
[19] = Figure 33, αxβ3γ2, read-out: Affinity Ki α4
[20] = Figure 33, αxβ3γ2, read-out: Affinity Ki α2
[21] = Figure 33, αxβ3γ2, read-out: Affinity Ki α3

SMILES | Ki (α4β3γ2 GABAA/BzR [2]) | Ki (α3β3γ2 GABAA/BzR [4]; Ki α3) | Ki (α5β3γ2 GABAA/BzR [5]; Ki α5) | Ki (α6β3γ2 GABAA/BzR [6]; Ki α6) | Ki (α1β3γ2 GABAA/BzR [7]; [16]) | Ki (α5β3γ2 GABAA/BzR [8]; [17]) | Ki (α6β3γ2 GABAA/BzR [9]; [18]) | Ki (α1β3γ2 GABAA/BzR [11]; Ki α1) | Ki (α2β3γ2 GABAA/BzR [12]; Ki α2) | also measured
NC1=N[C@H](O)[C@H]2[C@H]3O[C@]4(O)O[C@@H]([C@@H](O)[C@@]2(N1)[C@@H]4O)[C@]3(O)CO [TTX, Tetrodotoxin, reference compound] |  |  |  |  |  |  |  |  |  | cells/track after infusion in the ventral HPC of haloperidol-treated rats [1]: reversed the haloperidol-induced reduction in cells/track in SAL, but not MAM
C#Cc1ccc2[nH]c3cnc(C(=O)OC(C)(C)C)cc3c2c1 [WY-A-99-2 (WYS8)] | 2000 nM | 1.63 nM | 208 nM and 51 nM | 1980 nM | 0.972 nM | 1470 nM | 1980 nM |  |  | pharmacological properties compared with classical benzodiazepine receptor antagonists [3]: near GABA neutral antagonists
CC(C)(C)OC(=O)c1cc2c(cn1)[nH]c1ccc(C#C[Si](C)(C)C)cc12 [WY-B-14 (WYS7)] | 2000 nM | 36 nM and 245 nM |  | 1000 nM and 5000 nM | 6.8 nM | 108 nM | 1000 nM | 6.84 nM and 8.5 nM | 30 nM and 165 nM | Ki (α4β3γ2 GABAA/BzR [10]; [19]): 2000 nM; Ki (α2β3γ2 GABAA/BzR [13]; [20]): 30 nM; Ki (α3β3γ2 GABAA/BzR [14]; [21]): 36 nM
O=C(OCC(F)(F)F)c1cc2c(cn1)[nH]c1ccc(I)cc12 [WY-B-20] | 2000 nM | 47 nM | 122 nM | 3000 nM | 12 nM | 122 nM | 3000 nM | 12 nM | 39 nM | Ki (α4β3γ2 GABAA/BzR [10]; [19]): 2000 nM; Ki (α2β3γ2 GABAA/BzR [13]; [20]): 39 nM; Ki (α3β3γ2 GABAA/BzR [14]; [21]): 47 nM
O=C(OCC(F)(F)F)c1cc2c(cn1)[nH]c1ccc(-c3cccs3)cc12 [WY-B-27-2] |  |  |  |  |  |  |  |  |  | Ki (α4β3γ2 GABAA/BzR [2]; read-out: Ki α4): 2000 nM; Ki (α4β3γ2 GABAA/BzR [10]; read-out: Affinity Ki α4): 2000 nM; Ki (α1β3γ2 GABAA/BzR [11]; read-out: Ki α1): 9.19 nM; Ki (α2β3γ2 GABAA/BzR [12]; read-out: Ki α2): 111 nM; Ki (α3β3γ2 GABAA/BzR [4]; read-out: Ki α3): 72 nM; Ki (α5β3γ2 GABAA/BzR [5]; read-out: Ki α5): 449 nM; Ki (α6β3γ2 GABAA/BzR [6]; read-out: Ki α6): 2000 nM; Ki (α1β3γ2 GABAA/BzR [7]; read-out: Affinity Ki α1): 9.2 nM; Ki (α2β3γ2 GABAA/BzR [13]; read-out: Affinity Ki α2): 13 nM; Ki (α3β3γ2 GABAA/BzR [14]; read-out: Affinity Ki α3): 72 nM; Ki (α5β3γ2 GABAA/BzR [8]; read-out: Affinity Ki α5): 449 nM; Ki (α6β3γ2 GABAA/BzR [9]; read-out: Affinity Ki α6): 2000 nM
CCOC(=O)c1cc2c(cn1)[nH]c1ccc(C#C[Si](C)(C)C)cc12 [WY-B-99-1] | 2000 nM | 5.58 nM | 47 nM | 2000 nM | 4.4 nM | 47 nM | 2000 nM | 4.4 nM | 4.5 nM | Ki (α4β3γ2 GABAA/BzR [10]; [19]): 2000 nM; Ki (α1β3γ2 GABAA/BzR [11]; read-out: Ki α1): 4.4 nM; Ki (α2β3γ2 GABAA/BzR [12]; read-out: Ki α2): 4.5 nM; Ki (α3β3γ2 GABAA/BzR [4]; read-out: Ki α3): 5.58 nM; Ki (α5β3γ2 GABAA/BzR [5]; read-out: Ki α5): 47 nM; Ki (α2β3γ2 GABAA/BzR [13]; [20]): 4.5 nM; Ki (α3β3γ2 GABAA/BzR [14]; [21]): 5.58 nM
CCOC(=O)c1ncc2[nH]c3ccc(OCc4ccccc4)cc3c2c1COC [ZK 93423, 6-(benzyloxy)-4-(methoxymethyl)-β-carboline-3-carboxylic acid ethyl ester, reference compound] |  | 6 nM | 4.5 nM | 1000 nM |  |  |  | 4.1 nM | 4.2 nM | modulation ([3]; Supplement Table 1): agonist
CN1CCc2cccc3c2[C@H]1Cc1ccc(O)c(O)c1-3 [apomorphine, reference compound] |  |  |  |  |  |  |  |  |  | number of active dopamine neurons, MAM rats withdrawn from repeated HAL [1]: no effect; number of spontaneously active dopamine neurons, SAL rats withdrawn from repeated HAL [1]: increased
C#CC#Cc1ccc2c(c1)C(=O)N1CCC[C@H]1c1c(C(=O)OCC)ncn1-2 [compound 8] |  |  |  |  |  |  |  |  |  | Ki (α4β3γ2 GABAA/BzR [10]; Figure 4, read-out: Ki α4): > 1000 nM; Ki (α1β3γ2 GABAA/BzR [7]; Figure 4, read-out: Ki α1): > 1000 nM; Ki (α2β3γ2 GABAA/BzR [13]; Figure 4, read-out: Ki α2): > 1000 nM; Ki (α3β3γ2 GABAA/BzR [14]; Figure 4, read-out: Ki α3): > 1000 nM; Ki (α5β3γ2 GABAA/BzR [8]; Figure 4, read-out: Ki α5): 64 nM; Ki (α6β3γ2 GABAA/BzR [9]; Figure 4, read-out: Ki α6): > 1000 nM
COc1ccc(-c2ccc(=N)n(CCCC(=O)O)n2)cc1 [gabazine, reference compound] |  |  |  |  |  |  |  |  |  | effect on the attenuation by SH-053-2′F-R-CH3 of the calcium increase [15]: significantly blocked
O=C(CCCN1CCC(O)(c2ccc(Cl)cc2)CC1)c1ccc(F)cc1 [haloperidol, reference compound] |  |  |  |  |  |  |  |  |  | number of spontaneously active dopamine neurons after repeated treatment, SAL and MAM rats [1]: reduction
